The source of these data is PMC11649784, “Re-design and evaluation of diclofenac-based carborane-substituted prodrugs and their anti-cancer potential” (Scientific Reports, 2024).

Broadly, the IC50 is the concentration that gives 50% inhibition.

Data set [1] concerns HCT116 cells. The data set is described as follows: MTT viability assay, HCT116. Type of data set: cell-based, human. The conditions noted are these: 72 h, mean±SD, read-out: IC50 [μM] (n = 3) HCT116 MTT. How it is done: (§1) In a preliminary test, the stability of all compounds dissolved in the cell medium (c = 100 μM, T = [drawing 47] ) for 72 h was validated by HPLC (see Supporting Information). Cell lines were incubated with the respective compounds in a concentration range of 1.56–100 μM for 72 h, and cell viability was measured using 3-(4,5-dimethylthiazol-2-yl)-2,5-diphenyltetrazolium bromide (MTT) and crystal violet (CV) assays. […] As MTT tests gave inconsistent results, possibly due to interference of the compound with mitochondrial respiration, for the further evaluation only the CV results are considered[97],[98].
(§2) The biological study was performed on a murine colon adenocarcinoma cell line (MC38), two human colorectal carcinoma cell lines (HCT116 and HT29), and a human fetal lung fibroblast cell line (MRC-5). All cell lines are commercially available and were obtained from the American Type Culture Collection (ATCC). The human cell lines were kept in HEPES-buffered RPMI-1640 medium supplemented with 10 [drawing 141] heat-inactivated FCS, 2 mM L-glutamine, 0.01 [drawing 142] sodium pyruvate, penicillin (100 units mL^−1), and, streptomycin ( [drawing 143] mL^-1). The MC38 cell line was maintained in DMEM medium additionally supplemented with 1 [drawing 144] non-essential amino acids. Cells were grown at [drawing 145] in a humidified atmosphere with 5 [drawing 146] [drawing 147] . Peritoneal exudate cells (PECs) were isolated from healthy C57BL/6 mice (males, n = 3, 3 months old, weight 22–25 g) by performing an ice-cold PBS peritoneal lavage. Mice were sacrificed by cervical dislocation. Cells were cultivated for 4 h when nonadherent population was removed by washing in PBS, and additionally cultivated overnight in HEPES-buffered RPMI-1640 medium supplemented with 5 [drawing 148] heat-inactivated FCS before treatment with experimental drugs. Animal handling and protocol for isolation of PECs were performed according to European Union rules, and the ARRIVE guidelines 2.0.
(§3) For the viability tests, MC38, HCT116, and HT29 cells were seeded in 96-well plates at a density of 2 [drawing 149] 103, 5 [drawing 150] 103, and 6 [drawing 151] 10^3 cells/well, respectively. To determine whether the drug affected the viability of healthy, non-malignant cells, MRC-5 and PECs were seeded in 96-well plates at a density of 8 [drawing 152] 103 and 2 [drawing 153] 10^5 cells/well, respectively. For the flow cytometric analyses, MC38 cells were seeded in 6-well plates at 5 [drawing 154] 10^4 cells/well. For morphological assessment of nuclei and the detection of autophagy, MC38 cells were seeded in 2-well chamber slides at 1.5 [drawing 155] 10^4 cells/well.
(§4) After 72 h, cell viability was determined using MTT and CV tests. First, the supernatant from the wells was discarded and the cells were incubated with an MTT solution (0.5 mg mL^−1). After half an hour, the purple formazan crystals formed were dissolved in DMSO. For CV staining of the cells, the cells were fixed with 4 [drawing 157] PFA for 10 min and then stained with a 0.02 [drawing 158] CV solution for 15 min, all at room temperature (RT). The cells were then washed with tap water, air-dried and the dye was dissolved in 33 [drawing 159] acetic acid. For both viability tests, the absorbance of the developed colors was measured using an automated microplate reader at 570 nm with a reference wavelength of 670 nm. The results were expressed as a percentage of the control values of the untreated cells, which were arbitrarily set at 100 [drawing 160] . IC50 values, defined as 50 [drawing 161] inhibitory concentration, were calculated using a four-parameter logistic function and presented as mean±SD. All biological experiments were performed in triplicates. To evaluate the nature of the detected autophagy, a combined treatment with compound 3 and the autophagy inhibitors chloroquine (Chlq) and 3-methyladenine (3-MA) was carried out. […] After 72 h, cell viability was determined by CV assay.
A general note: Tetrazolium assays rely on reduction of a dye to a coloured formazan, in cell work by metabolically active cells.

For the next data set, the target named is T1, human recombinant COX-2 (Homo sapiens, UniProt P35354).
T1 construct: purchased Cayman Chemical Company, Ann Arbor, MI, USA
T1 sequence (P35354 18-604): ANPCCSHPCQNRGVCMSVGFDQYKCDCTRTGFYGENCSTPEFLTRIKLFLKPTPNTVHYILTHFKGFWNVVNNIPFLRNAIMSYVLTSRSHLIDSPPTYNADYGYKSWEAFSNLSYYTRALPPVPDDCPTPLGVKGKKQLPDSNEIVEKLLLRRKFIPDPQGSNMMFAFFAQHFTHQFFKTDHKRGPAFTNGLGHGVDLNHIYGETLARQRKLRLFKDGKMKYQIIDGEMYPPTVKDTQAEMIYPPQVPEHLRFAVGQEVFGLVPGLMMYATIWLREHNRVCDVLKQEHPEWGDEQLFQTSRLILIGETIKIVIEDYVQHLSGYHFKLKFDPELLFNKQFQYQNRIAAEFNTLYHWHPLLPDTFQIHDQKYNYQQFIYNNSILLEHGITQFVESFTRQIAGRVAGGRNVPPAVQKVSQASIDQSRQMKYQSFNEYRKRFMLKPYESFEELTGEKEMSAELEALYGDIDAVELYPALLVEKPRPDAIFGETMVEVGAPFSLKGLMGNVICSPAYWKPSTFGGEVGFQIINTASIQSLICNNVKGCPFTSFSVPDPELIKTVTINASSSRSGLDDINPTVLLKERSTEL
The data set is described as follows: COX Fluorescent Inhibitor Screening Assay, COX-2. The conditions noted are these: for COX inhibition, in words: in vitro COX assay, COX-1 and COX-2. In kind it is biochemical. How it is done: The COX inhibition activity against ovine COX-1 and human recombinant COX-2 was determined using the COX Fluorescent Inhibitor Screening Assay Kit (Cayman Chemical Company, Ann Arbor, MI, USA) according to the manufacturer’s instructions as reported.

Data set [2] deals with HT29 cells. Description: MTT viability assay, HT29. Type of data set: cell-based, human. The conditions noted are these: 72 h, mean±SD, read-out: IC50 [μM] (n = 3) HT29 MTT. Here is the method:
as §1, §2, §3, §4

The test system of data set [3] is HCT116 cells. Description: Crystal violet (CV) viability assay, HCT116. In kind it is cell-based, human. The conditions noted are these: 72 h, mean±SD, read-out: IC50 [μM] (n = 3) HCT116 CV. How it is done: as §1, §2, §3, §4
For data set [4] the following is noted: in vivo ref 43, 44; cited from earlier work.
Data set [5] deals with HT29 cells. The data set is described as follows: Crystal violet (CV) viability assay, HT29. Type of data set: cell-based, human. The conditions noted are these: 72 h, mean±SD, read-out: IC50 [μM] (n = 3) HT29 CV. How it is done: as §1, §2, §3, §4
The subject of a further data set is Hep-G2. The conditions noted are these: cited from earlier work.
For another data set, the system named is MC38, HCT116, and HT29. Description: Viability assays, summary over the three cancer cell lines. In kind it is cell-based. The conditions noted are these: 72 h; for effect on cell viability: concentrations up to 100 μM. Here is the method:
as §1, §4

For data set [6] the following is noted: cited from earlier work.
For data set [7] the following is noted: buffer solutions at pH 1.2 and pH 7.4 and human serum ref 36, 43; cited from earlier work.
Data set [8] deals with MCF7, MiaPaCa-2, KB, HuTu80, L132, B16F10 and Molt4 cancer cells. On the set-up: method as in doi:10.1007/s00044-012-0309-2. The conditions noted are these: cited from earlier work.
The test system of data set [9] is MC38 cells. Description: MTT viability assay, MC38. The conditions noted are these: 72 h, mean±SD, read-out: IC50 [μM] (n = 3) MC38 MTT. Type of data set: cell-based, murine. How it is done:
as §1, §2, §3, §4

The subject of data set [10] is MC38 cells. The data set is described as follows: Crystal violet (CV) viability assay, MC38. In kind it is cell-based, murine. The conditions noted are these: 72 h, mean±SD, read-out: IC50 [μM] (n = 3) MC38 CV. How it is done:
as §1, §2, §3, §4

Data set [11] in a line: Hydrolysis stability of the lactam in solution. Type of data set: physicochemical. The conditions noted are these: several pH-levels, acids, bases, temperatures and solvents. An excerpt:
To estimate the functionality as a prodrug and the stability of the oxindoles, we investigated the behavior in solution at several pH-levels, with different acids, bases, temperatures and solvents (see Supporting Information). […] The alkaline hydrolysis was successful with CsOH in a degassed 1:3 water-ethanol mixture at [drawing 29] , while acidic hydrolysis happened at [drawing 30] in 40% aqueous sulfuric acid with 2% acetic acid. Upon attempted isolation however, the lactam was re-formed within minutes as observed by [drawing 31] H and ^11B{ [drawing 32] H} NMR spectroscopy (see Supporting Information). […] The reclosing to the oxindole ring might be attributed to an increased nucleophilicity of the amino nitrogen atom stemming from its association to the carborane cluster via a cluster boron atom. This is supported by density functional theory (DFT) calculations (see Supporting Information).

In the case of `O=C1Cc2ccccc2N1c1c(Cl)cccc1Cl` [CCF, 1-(2,6-dichlorophenyl)-1,3-dihydro-2H-indolin-2-one, reference compound], the IC50 was 46.7 ± 2.4 µM in the data set with HCT116 cells [1] (Homo sapiens, HCT-116); 77.7 ± 5.5 µM in the data set on HT29 cells [2] (Homo sapiens, HT-29); 73.5 ± 3.9 µM with HCT116 cells [3] (Homo sapiens, HCT-116); 74.4 ± 4.8 µM in the data set on HT29 cells [5] (Homo sapiens, HT-29); 24.5 ± 1.11 µM with Hep-G2; ~74 µM in the data set on MC38, HCT116, and HT29 (CV). Also, the IC50 in the data set with MC38 cells [9] (Mus musculus, MC-38) is 32.6 ± 2.7 µM; in the data set on MC38 cells [10] (Mus musculus, MC-38), 75.1 ± 3.8 µM. At human recombinant COX-2, the “COX inhibition, in words” value is given as “no inhibition at all”. Moreover, the inhibition at 100 µM on human recombinant COX-2 (read-out: %Inh. @ 100 μM (n = 2) COX-2) is 5%. Also, the “in vivo conversion to open-chain diclofenac” value in data set [4] is “hydrolysis of the lactam to form the open-chain diclofenac”. The gastrotoxicity result in data set [6] is recorded as “without causing gastrotoxicity”. Also, in [7], the stability towards hydrolysis entry is “High stability towards hydrolysis”. Also, in [8], the “effect in initial in vitro tests on cancer cells” value was “no effect”.
For the molecule “1-[9-(1,2-dicarba-closo-dodecaboranyl)]-1,3-dihydro-2H-indolin-2-one [o1]”, the IC50 in the data set on HCT116 cells [1], with HT29 cells [2], in the data set on HCT116 cells [3], in the data set with HT29 cells [5], with MC38 cells [9] and in the data set with MC38 cells [10] was > 100 µM in each case. For the same molecule, at human recombinant COX-2, the “%Inh. @ 100 μM (n = 2) COX-2” value turned out to be 14%. Also, the “effect on cell viability” value in the data set on MC38, HCT116, and HT29 is “no effect on cell viability”.
Take “1-[2-(1,12-dicarba-closo-dodecaboranyl)]-1,3-dihydro-2H-indolin-2-one [p1]”: the IC50 with HCT116 cells [1], with HT29 cells [2], with HCT116 cells [3], in the data set with HT29 cells [5], in the data set with MC38 cells [9] and in the data set on MC38 cells [10] was > 100 µM each time. In data set [11], the “stability of the lactam towards hydrolysis” value is “extraordinarily stable towards hydrolysis”. The “effect on cell viability” value with MC38, HCT116, and HT29 is “no effect on cell viability”.
Consider “Sodium 1-[2-(7,8-dicarba-nido-undecaborate)]-1,3-dihydro-2H-indolin-2-one [compound 2]”, for which the IC50 in the data set on HCT116 cells [1] was > 100 µM; on human recombinant COX-2 (absolute IC50, 0.1 to 100 μM in duplicate, 95% CI in brackets), 58.5 µM; with HT29 cells [2] it was > 100 µM; with HCT116 cells [3], > 100 µM; with HT29 cells [5], > 100 µM; in the data set on MC38 cells [9], > 100 µM. Besides, in the data set on MC38 cells [10], the IC50 is > 100 µM. The “%Inh. @ 100 μM (n = 2) COX-2” value on human recombinant COX-2 stood at 56%. In addition, the “COX inhibition, in words” value on human recombinant COX-2 is listed as “moderately active COX-inhibitors”. In the data set on MC38, HCT116, and HT29, the “effect on cell viability” value was “no effect on cell viability”.
With `O=C(O)Cc1ccccc1Nc1c(Cl)cccc1Cl` [DCF, diclofenac], the IC50 with HCT116 cells [1] (Homo sapiens, HCT-116) was > 100 µM; in the data set on HT29 cells [2] (Homo sapiens, HT-29), > 100 µM; in the data set on HCT116 cells [3] (Homo sapiens, HCT-116), > 100 µM; in the data set with HT29 cells [5] (Homo sapiens, HT-29), > 100 µM; in the data set on MC38 cells [9] (Mus musculus, MC-38), > 100 µM; in the data set on MC38 cells [10] (Mus musculus, MC-38) it was > 100 µM. Besides, in the data set with MC38, HCT116, and HT29, the “effect on cell viability” value is reported as “no effect on cell viability”.
As for “1-[9-(1,7-dicarba-closo-dodecaboranyl)]-1,3-dihydro-2H-indolin-2-one [m1]”, the IC50 with HCT116 cells [1], in the data set with HT29 cells [2], in the data set with HCT116 cells [3], with HT29 cells [5], in the data set with MC38 cells [9] and in the data set with MC38 cells [10] was > 100 µM in each case. At human recombinant COX-2, the “%Inh. @ 100 μM (n = 2) COX-2” value is on record as 19%. Besides, the “effect on cell viability” value in the data set with MC38, HCT116, and HT29 is “no effect on cell viability”.
